Results: patent US9776990B2, “Isoindolone derivatives” (AbbVie Inc., priority 2012, dated 2017)

Legend:
BRD4 (BDI_K57-E168) = BRD4 (BDI_K57-E168) (Homo sapiens (Human), UniProt O60885); assay: TR-FRET bromodomain binding assay, BRD4 first bromodomain; conditions: His-tagged BD1, 100 nM Alexa647 probe
Method in brief: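 His-tagged BRD4 BD1 or BD2 (8 nM) with Eu-anti-His antibody (1 nM) and Alexa647-labelled BET-inhibitor probe (100 nM BDI, 30 nM BDII); 50 μM−0.85 nM compound, 2% DMSO, phosphate buffer pH 6.0, 1 h at room temperature. TR-FRET IC50 by 4-parameter fit, converted to Ki using probe Kd.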

NCI-H929 = assay: Proliferation panel assay, NCI-H929; assay type: cell-based; conditions: Homo sapiens, 120 h; Multiple Myeloma, NCI-H929, 5 days; read-out: Cellular Proliferation EC50
Procedure: (§1) The impact of compounds of the Examples on cancer cell proliferation was determined using the breast cancer cell line MX-1 (ATCC) in a 3-day proliferation assay. MX-1 cells were maintained in RPMI supplemented with 10% FBS at 37 C.° and an atmosphere of 5% CO2. For compound testing, MX-1 cells were plated in 96-well black bottom plates at a density of 5000 cells/well in 90 μl of culture media and incubated at 37° overnight to allow cell adhesion and spreading. Compound dilution series were prepared in DMSO via a 3-fold serial dilution from 3 mM to 0.1 μM. […]
(§2) Luminescence readings from the Cell Titer Glo assay were normalized to the DMSO treated cells and analyzed using the GraphPad Prism software with sigmoidal curve fitting to obtain EC50s. The minimum significant ratio (MSR) was determined to evaluate assay reproducibility (Eastwood et al., (2006) J Biomol Screen, 11: 253-261). The overall MSR was determined to be 2.1 and a moving MSR (last six run MSR overtime) has been <2.
(§3) The compound of Example 40 was tested for its impact on proliferation of a panel of cancer cell line types (with specific cell lines tested) as set out in (Table 2). […] Cell proliferation data were analyzed as described above in the MX-1 proliferation assay to obtain the EC50 for the compounds reported in Table 2.

786-0 = assay: Proliferation panel assay, 786-0; assay type: cell-based; conditions: Homo sapiens, 120 h; RCC, 786-0, 5 days; read-out: Cellular Proliferation EC50
Procedure: as §1, §2, §3

SK-LMS-1 = assay: Proliferation panel assay, SK-LMS-1; assay type: cell-based; conditions: Homo sapiens, 120 h; Sarcoma, SK-LMS-1, 5 days; read-out: Cellular Proliferation EC50
Procedure: as §1, §2, §3

[1] = system: LPS induced IL-6 production; assay: LPS (lipopolysaccharide) induced IL-6 production mouse assay; assay type: in vivo; conditions: mice, one hour before LPS, serum 2 hours after LPS
Procedure: Compounds of the Examples listed in Table 8 were assayed for their ability to inhibit LPS (lipopolysaccharide) induced IL-6 production in mice. Severe combined immunodeficient female mice (8 per group) received an intraperitoneal challenge of lipopolysaccharide (2.5 mg/kg, L2630 E. coli 0111:B4) one hour after oral administration (PO) or intraperitoneal administration (IP) of compounds in a solution of 2% ethanol, 5% Tween-80, 20% PEG-400 and 73% (0.2% hydroxypropylmethylcellulose in water). Mice were euthanized 2 hours after lipopolysaccharide injection, blood was removed by cardiac puncture, and then the serum harvested from the blood samples was frozen at −80° C. On the day of the assay the serum samples were brought to room temperature and then diluted 1:20 in phosphate-buffered saline containing 2% bovine serum albumin. Interleukin-6 measurements were performed using a cytokine assay from Meso Scale Discovery (Gaithersburg, Md.) for mouse serum analysis according to the manufacturer's protocol and read on a SECTOR Imager 6000 (Meso Scale Discovery, Gaithersburg, Md.) instrument. Statistical analysis was performed using Prism software (version 5.0) incorporating Dunnett's one way ANOVA. The IL-6 mean and standard deviation of the group of vehicle treated animals were compared with the IL-6 mean and standard deviation of the group treated with drug. A p value <0.05 means that there is less than a 5% probability that the mean values in the two groups are equal.

## Cc1[nH]c(-c2cc(NS(C)(=O)=O)ccc2Oc2ccccc2)c2c1C(=O)CCC2 [Example 40, N-[3-(3-methyl-4-oxo-4,5,6,7-tetrahydro-2H-isoindol-1-yl)-4-phenoxyphenyl]methanesulfonamide]
BRD4 (BDI_K57-E168)
  Ki: 15 nM
NCI-H929
  EC50: 41 nM
786-0
  EC50: 139 nM
SK-LMS-1
  EC50: 176 nM
[1]; 3 mg/kg (PO)
  % inhibition of LPS induced IL-6 production: 28.7 at 3 mg/kg (PO) %
[1]; 10 mg/kg (PO)
  % inhibition of LPS induced IL-6 production: 52.4 at 10 mg/kg (PO) %
[1]; 30 mg/kg (PO)
  % inhibition of LPS induced IL-6 production: 72.7 at 30 mg/kg (PO) %
[1]; 50 mg/kg (IP)
  % inhibition of LPS induced IL-6 production: 84.7 at 50 mg/kg (IP) %
